Values joined by “and” are separate entries in the source; they are usually repeats but may differ in a detail not shown here. Identical values can stand only once.
Experiments:
Serine protease 1 = target: T1, Serine protease 1 (Bos taurus, UniProt P00760); assay: Enzyme Inhibition Assay
T1 sequence (P00760 whole entry): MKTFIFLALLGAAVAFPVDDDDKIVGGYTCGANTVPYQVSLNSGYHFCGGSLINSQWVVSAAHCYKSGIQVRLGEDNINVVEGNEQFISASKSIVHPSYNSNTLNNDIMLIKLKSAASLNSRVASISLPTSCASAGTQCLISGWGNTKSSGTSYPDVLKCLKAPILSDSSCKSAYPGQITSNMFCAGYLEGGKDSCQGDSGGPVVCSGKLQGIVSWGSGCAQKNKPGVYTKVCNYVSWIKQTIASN

Prothrombin = Prothrombin (Homo sapiens, UniProt P00734); assay: Enzyme Inhibition Assay
Protocol: Thrombin-catalyzed hydrolysis rates were measured spectrophotometrically using human alpha-thrombin, a chromogenic substrate in aqueous buffer, and a microplate reader. […] The IC50 values were determined by fixing the enzyme and substrate concentrations and varying the inhibitor concentration. Ki values were determined by fixing the enzyme and inhibitor concentrations and varying the substrate concentration. Michaelis-Menton kinetics was applied to the initial reaction slopes using the program K.Cat (Bio Metallics Inc.).

Compound	Ki (Serine protease 1)	IC50 (Prothrombin)	Ki (Prothrombin)	further results
CC(N)(Cc1ccccc1)C(=O)N1CCC[C@H]1C(=O)NC(CCCN=C(N)N)C(=O)c1nc2ccccc2s1 (stereo partly drawn) [(2S)-1-(2-amino-2-benzylpropanoyl)-N-[1-(1,3-benzothiazol-2-yl)-5-carbamimidamido-1-oxopentan-2-yl]pyrrolidine-2-carboxamide]	3.9 nM			
CN[C@@H](C(=O)N1CCC[C@H]1C(=O)N[C@@H](CCCN=C(N)N)C(=O)c1nc2ccccc2s1)C1CCCCC1 [(2S)-N-[(2S)-1-(1,3-benzothiazol-2-yl)-5-carbamimidamido-1-oxopentan-2-yl]-1-[(2R)-2-cyclohexyl-2-(methylamino)acetyl]pyrrolidine-2-carboxamide]	1.2 nM			IC50 (Prothrombin; pH 7.4, 37 °C): 5.3 nM; Ki (Prothrombin; pH 7.4, 37 °C): 0.018 nM
NC(N)=NCCCC(NC(=O)[C@@H]1CCCN1C(=O)[C@@H](N)Cc1ccccc1)C(=O)c1nc2ccccc2s1 (stereo partly drawn) [(2S)-1-[(2S)-2-amino-3-phenylpropanoyl]-N-[1-(1,3-benzothiazol-2-yl)-5-carbamimidamido-1-oxopentan-2-yl]pyrrolidine-2-carboxamide]				IC50 (Serine protease 1): 5.8 nM
CN[C@@H](C(=O)N1CCC[C@H]1C(=O)N[C@@H](CCCN=C(N)N)C(=O)c1nc2ccccc2s1)C(c1ccccc1)c1ccccc1 [(2S)-N-[(2S)-1-(1,3-benzothiazol-2-yl)-5-carbamimidamido-1-oxopentan-2-yl]-1-[(2R)-2-(methylamino)-3,3-diphenylpropanoyl]pyrrolidine-2-carboxamide]				IC50 (Serine protease 1): 30 nM
CN[C@H](Cc1ccccc1)C(=O)N1CCC[C@H]1C(=O)N[C@@H](CCCN=C(N)N)C(=O)c1nc2ccc(C(=O)O)cc2s1 [2-[(2S)-5-carbamimidamido-2-{[(2S)-1-[(2R)-2-(methylamino)-3-phenylpropanoyl]pyrrolidin-2-yl]formamido}pentanoyl]-1,3-benzothiazole-6-carboxylic acid]	2.7 nM			
CN[C@H](Cc1ccccc1)C(=O)N1CCC[C@H]1C(=O)NC(CCCN=C(N)N)C(=O)c1nccn1C (stereo partly drawn) [(2S)-N-[5-carbamimidamido-1-(1-methyl-1H-imidazol-2-yl)-1-oxopentan-2-yl]-1-[(2R)-2-(methylamino)-3-phenylpropanoyl]pyrrolidine-2-carboxamide]	5800 nM	1500 nM	200 nM	
CN[C@H](Cc1ccc(F)cc1)C(=O)N1CCC[C@H]1C(=O)NC(CCCN=C(N)N)C(=O)c1nc2ccccc2s1 (stereo partly drawn) [(2S)-N-[1-(1,3-benzothiazol-2-yl)-5-carbamimidamido-1-oxopentan-2-yl]-1-[(2R)-3-(4-fluorophenyl)-2-(methylamino)propanoyl]pyrrolidine-2-carboxamide]	3.3 nM			
NC(N)=NCCCC(NC(=O)[C@@H]1CCCN1C(=O)C1(O)c2ccccc2-c2ccccc21)C(=O)c1nc2ccccc2s1 (stereo partly drawn) [(2S)-N-[1-(1,3-benzothiazol-2-yl)-5-carbamimidamido-1-oxopentan-2-yl]-1-[(9-hydroxy-9H-fluoren-9-yl)carbonyl]pyrrolidine-2-carboxamide]	2 nM	95 nM	3.1 nM	
CN[C@H](Cc1ccccc1)C(=O)N1CCC[C@H]1C(=O)N[C@H](CC(=O)c1nc2ccccc2s1)C1CCC(N)CC1 (stereo partly drawn) [(2S)-N-[(1R)-1-(4-aminocyclohexyl)-3-(1,3-benzothiazol-2-yl)-3-oxopropyl]-1-[(2R)-2-(methylamino)-3-phenylpropanoyl]pyrrolidine-2-carboxamide]		> 100000 nM		IC50 (Serine protease 1): 58000 nM
CN[C@H](Cc1ccccc1)C(=O)N1CCC[C@H]1C(=O)N[C@@H](Cc1ccc(C(=N)N)cc1)C(=O)c1nc2ccccc2s1 [(2S)-N-[(2S)-1-(1,3-benzothiazol-2-yl)-3-(4-carbamimidoylphenyl)-1-oxopropan-2-yl]-1-[(2R)-2-(methylamino)-3-phenylpropanoyl]pyrrolidine-2-carboxamide]		> 1000 nM		
CNCCCC[C@@H](NC(=O)[C@@H]1CCCN1C(=O)[C@@H](Cc1ccccc1)NC)C(=O)c1nc2ccccc2s1 [(2S)-N-[(2R)-1-(1,3-benzothiazol-2-yl)-6-(methylamino)-1-oxohexan-2-yl]-1-[(2R)-2-(methylamino)-3-phenylpropanoyl]pyrrolidine-2-carboxamide]		> 1000 nM		
CN[C@H](Cc1ccccc1)C(=O)N1CCC[C@H]1C(=O)NC(CCCN=C(N)N)C(O)c1nc2ccccc2s1 (stereo partly drawn) [(2S)-N-[1-(1,3-benzothiazol-2-yl)-5-carbamimidamido-1-hydroxypentan-2-yl]-1-[(2R)-2-(methylamino)-3-phenylpropanoyl]pyrrolidine-2-carboxamide]	180000 nM and 250000 nM	48000 nM and 17000 nM	5300 nM and 1600 nM	
CN[C@H](Cc1ccccc1)C(=O)N1CCC[C@H]1C(=O)N[C@@H](CCCNC(=N)N)C(=O)c1cc2ccccc2s1		13000 nM		
CN[C@H](Cc1ccccc1)C(=O)N1CCC[C@H]1C(=O)N[C@@H](Cc1ccccc1)C(=O)c1nc2ccccc2s1 [(2S)-N-[(2S)-1-(1,3-benzothiazol-2-yl)-1-oxo-3-phenylpropan-2-yl]-1-[(2R)-2-(methylamino)-3-phenylpropanoyl]pyrrolidine-2-carboxamide]		> 1000 nM		
CN[C@H](Cc1ccccc1)C(=O)N1CCC[C@H]1C(=O)N[C@@H](CC(=O)c1nc2ccccc2s1)C1CCC(N)CC1 (stereo partly drawn) [(2S)-N-[(1S)-1-(4-aminocyclohexyl)-3-(1,3-benzothiazol-2-yl)-3-oxopropyl]-1-[(2R)-2-(methylamino)-3-phenylpropanoyl]pyrrolidine-2-carboxamide]		> 100000 nM		IC50 (Serine protease 1): 22000 nM
CN[C@@H](C(=O)N1CCC[C@H]1C(=O)NC(CCCN=C(N)N)C(=O)c1nc2ccccc2s1)c1ccccc1 (stereo partly drawn) [(2S)-N-[1-(1,3-benzothiazol-2-yl)-5-carbamimidamido-1-oxopentan-2-yl]-1-[(2R)-2-(methylamino)-2-phenylacetyl]pyrrolidine-2-carboxamide]				IC50 (Serine protease 1): 32 nM
CN[C@H](Cc1ccccc1)C(=O)N1CCC[C@H]1C(=O)N[C@@H](C(=O)c1nc2ccccc2s1)C1CCC(N)CC1 (stereo partly drawn) [The relative stereochemistry of the cyclohexyl ring is trans]	330 nM	1900 nM	110 nM	
CN[C@H](Cc1ccccc1)C(=O)N1CCC[C@H]1C(=O)NC(CCCN=C(N)N)C(=O)c1nccs1 (stereo partly drawn) [(2S)-N-[5-carbamimidamido-1-oxo-1-(1,3-thiazol-2-yl)pentan-2-yl]-1-[(2R)-2-(methylamino)-3-phenylpropanoyl]pyrrolidine-2-carboxamide]	1.2 nM	19 nM	2.1 nM	
CN[C@H](Cc1ccccc1)C(=O)N1CCC[C@H]1C(=O)NC(CCCN=C(N)N)C(=O)c1nc2ccccc2s1 (stereo partly drawn) [(2S)-N-[1-(1,3-benzothiazol-2-yl)-5-carbamimidamido-1-oxopentan-2-yl]-1-[(2R)-2-(methylamino)-3-phenylpropanoyl]pyrrolidine-2-carboxamide]				IC50 (Prothrombin; pH 7.4, 37 °C): 29 nM; Ki (Prothrombin; pH 7.4, 37 °C): 0.2 nM
N=C(N)NCCCCC(=O)c1nc2ccccc2s1 [3-[5-(1,3-benzothiazol-2-yl)-5-oxopentyl]guanidine]	> 100000 nM	> 300000 nM		
CN[C@H](Cc1ccccc1)C(=O)N1CCC[C@H]1C(=O)N[C@@H](C(=O)c1nc2ccccc2s1)C1CCC(CN)CC1 (stereo partly drawn) [(2S)-N-[(1R)-1-[4-(aminomethyl)cyclohexyl]-2-(1,3-benzothiazol-2-yl)-2-oxoethyl]-1-[(2R)-2-(methylamino)-3-phenylpropanoyl]pyrrolidine-2-carboxamide]		> 1000 nM		
NC(N)=NCCCC(NC(=O)[C@@H]1CCCN1C(=O)C(N)(c1ccccc1)c1ccccc1)C(=O)c1nc2ccccc2s1 (stereo partly drawn) [(2S)-1-(2-amino-2,2-diphenylacetyl)-N-[1-(1,3-benzothiazol-2-yl)-5-carbamimidamido-1-oxopentan-2-yl]pyrrolidine-2-carboxamide]	1.8 nM			IC50 (Prothrombin; pH 7.4, 37 °C): 15 nM; Ki (Prothrombin; pH 7.4, 37 °C): 2.1 nM
CN[C@H](Cc1ccccc1)C(=O)N1CCC[C@H]1C(=O)NC(CCCN=C(N)N)C(=O)c1ccccn1 (stereo partly drawn) [(2S)-N-[5-carbamimidamido-1-oxo-1-(pyridin-2-yl)pentan-2-yl]-1-[(2R)-2-(methylamino)-3-phenylpropanoyl]pyrrolidine-2-carboxamide]	73 nM	930 nM	85 nM	
CN[C@H](Cc1ccccc1)C(=O)N1CCC[C@H]1C(=O)N[C@H](C(=O)c1nc2ccccc2s1)C1CCC(CN)CC1 (stereo partly drawn) [(2S)-N-[(1S)-1-[4-(aminomethyl)cyclohexyl]-2-(1,3-benzothiazol-2-yl)-2-oxoethyl]-1-[(2R)-2-(methylamino)-3-phenylpropanoyl]pyrrolidine-2-carboxamide]	54 nM	17000 nM	920 nM	
CCS(=O)(=O)N[C@H](Cc1ccccc1)C(=O)N1CCC[C@H]1C(=O)N[C@@H](C(=O)c1nc2ccccc2s1)C1CCC(N)CC1 (stereo partly drawn) [The relative stereochemistry of the cyclohexyl ring is trans]	87 nM	460 nM	53 nM	
CNCCCC[C@H](NC(=O)[C@@H]1CCCN1C(=O)[C@@H](Cc1ccccc1)NC)C(=O)c1nc2ccccc2s1 [(2S)-N-[(2S)-1-(1,3-benzothiazol-2-yl)-6-(methylamino)-1-oxohexan-2-yl]-1-[(2R)-2-(methylamino)-3-phenylpropanoyl]pyrrolidine-2-carboxamide]		> 1000 nM		
